Test results from ChEMBL document CHEMBL1145171, “Synthesis, biological evaluation, and molecular modeling investigation of new chiral fibrates with PPARalpha and PPARgamma agonist activity” (J Med Chem, 2005).

Legend:
[1] = target: T1, Peroxisome proliferator-activated receptor alpha (Homo sapiens, UniProt Q07869); assay: Effective concentration against human PPARalpha expressed in HepG2 cells; type: cell-based
T1 sequence (Q07869 whole entry): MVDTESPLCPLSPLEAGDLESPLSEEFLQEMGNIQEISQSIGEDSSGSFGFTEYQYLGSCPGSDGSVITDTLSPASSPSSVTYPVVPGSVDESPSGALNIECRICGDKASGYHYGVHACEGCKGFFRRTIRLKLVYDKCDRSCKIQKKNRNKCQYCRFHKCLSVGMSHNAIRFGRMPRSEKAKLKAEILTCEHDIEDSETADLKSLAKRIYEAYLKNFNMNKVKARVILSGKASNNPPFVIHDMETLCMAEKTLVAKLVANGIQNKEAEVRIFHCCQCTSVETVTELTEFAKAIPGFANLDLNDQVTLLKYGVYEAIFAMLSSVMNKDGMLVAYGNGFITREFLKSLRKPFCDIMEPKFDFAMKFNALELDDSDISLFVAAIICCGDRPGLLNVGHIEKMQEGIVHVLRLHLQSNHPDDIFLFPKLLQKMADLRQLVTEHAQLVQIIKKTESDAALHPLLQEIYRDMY

[2] = target: T2, Peroxisome proliferator-activated receptor alpha (Homo sapiens) (UniProt Q07869); assay: Efficacy against human PPARalpha expressed in HepG2 cells relative to Wy-14,643; type: cell-based
T2 sequence (whole entry): T1 sequence (Q07869 whole entry)

[3] = target: T3, Peroxisome proliferator-activated receptor gamma (Homo sapiens, UniProt P37231)
T3 sequence (P37231 whole entry): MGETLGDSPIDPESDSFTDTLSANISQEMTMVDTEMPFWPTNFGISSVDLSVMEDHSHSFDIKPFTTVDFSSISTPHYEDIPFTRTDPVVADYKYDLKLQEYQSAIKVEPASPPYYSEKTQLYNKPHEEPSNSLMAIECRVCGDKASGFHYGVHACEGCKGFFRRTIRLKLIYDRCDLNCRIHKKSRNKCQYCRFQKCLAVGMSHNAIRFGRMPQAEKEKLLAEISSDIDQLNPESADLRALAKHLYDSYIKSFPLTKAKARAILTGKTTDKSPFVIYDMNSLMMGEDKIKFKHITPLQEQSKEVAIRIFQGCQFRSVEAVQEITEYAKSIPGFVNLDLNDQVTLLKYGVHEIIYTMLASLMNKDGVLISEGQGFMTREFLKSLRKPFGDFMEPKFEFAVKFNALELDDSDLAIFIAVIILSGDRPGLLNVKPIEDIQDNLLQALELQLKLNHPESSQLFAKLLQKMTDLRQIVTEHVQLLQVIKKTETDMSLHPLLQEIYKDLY

[4] = target: T4, Peroxisome proliferator-activated receptor alpha (Mus musculus) (UniProt P23204); assay: Efficacy against murine PPARalpha relative to Wy-14,643
T4 sequence (whole entry): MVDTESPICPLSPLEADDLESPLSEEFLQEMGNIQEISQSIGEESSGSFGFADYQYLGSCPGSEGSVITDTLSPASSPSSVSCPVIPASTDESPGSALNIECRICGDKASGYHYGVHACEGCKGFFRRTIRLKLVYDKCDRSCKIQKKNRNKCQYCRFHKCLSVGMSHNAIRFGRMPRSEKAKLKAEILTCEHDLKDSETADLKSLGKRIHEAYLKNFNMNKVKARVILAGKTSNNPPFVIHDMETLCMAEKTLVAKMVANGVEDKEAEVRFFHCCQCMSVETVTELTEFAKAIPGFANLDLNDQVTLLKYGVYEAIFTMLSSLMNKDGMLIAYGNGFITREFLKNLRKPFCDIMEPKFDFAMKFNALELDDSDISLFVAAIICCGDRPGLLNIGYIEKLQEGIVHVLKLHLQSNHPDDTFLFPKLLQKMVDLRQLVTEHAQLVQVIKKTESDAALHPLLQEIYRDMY

[5] = target: T3, Peroxisome proliferator-activated receptor gamma; assay: Effective concentration against human PPARgamma expressed in HepG2 cells; i.a = inactive at tested concentration; type: cell-based
[6] = target: T5, Peroxisome proliferator-activated receptor alpha (Mus musculus, UniProt P23204); assay: Effective concentration against murine PPARalpha in transactivation assay
T5 sequence (P23204 whole entry): T4 sequence (whole entry)

[7] = target: T1, Peroxisome proliferator-activated receptor alpha; assay: Effective concentration against human PPARalpha expressed in HepG2 cells; i.a = inactive at tested concentration; type: cell-based

Compound | EC50 [1] [µM] | Efficacy [2] | EC50 [3] [µM] | Efficacy [4] | EC50 [6] [µM] | EC50 [5] | EC50 [7]
CCC[C@@H](Oc1ccc2ccccc2c1)C(=O)O | 3.9 | 10.5 | 12.5 |  |  |  | 
CCC[C@H](OCc1ccc(-c2ccc(Cl)cc2)cc1)C(=O)O | 3.9 | 29.8 | 8.9 |  |  |  | 
Cc1cccc(Nc2cc(Cl)nc(SCC(=O)O)n2)c1C [PIRINIXIC ACID] |  | 100 |  | 100 |  | Not Active | 
O=C(O)[C@H](Cc1ccccc1)Oc1ccc(-c2cccs2)cc1 | 0.9 | 93.2 | 1.6 | 70.7 | 0.15 |  | 
CCC[C@H](Oc1ccc2ccccc2c1)C(=O)O | 8.4 | 95.6 | 7.2 |  |  |  | 
O=C(O)[C@H](Cc1ccccc1)Oc1ccc(-c2ccccc2)cc1 |  | 124 |  | 99.3 | 0.2 |  | 
O=C(O)[C@H](Cc1ccccc1)Oc1ccc2ccccc2c1 | 1.4 | 130 | 1.5 |  |  |  | 
CCC[C@@H](OCc1ccc(-c2ccc(Cl)cc2)cc1)C(=O)O | 4 | 36.6 | 5.4 |  |  |  | 
CN(CCOc1ccc(CC2SC(=O)NC2=O)cc1)c1ccccn1 (centres undefined) [ROSIGLITAZONE] |  |  |  |  |  |  | Not Active
CC(=O)c1ccc(O[C@@H](Cc2ccccc2)C(=O)O)cc1 | 13.5 | 68.3 | 12.4 |  |  |  | 
CC(C)(Oc1ccc(Cl)cc1)C(=O)O [CLOFIBRIC ACID] | 39.6 | 89.7 | 309 | 67.2 | 42 |  | 

Continued, in another order:

EC50 [1] [µM] | Efficacy [2] | EC50 [3] [µM] | Efficacy [4] | EC50 [6] [µM] | Compound | EC50 [5] | EC50 [7]
0.7 | 114 | 3.6 | 127 | 0.35 | CCc1ccc(O[C@@H](Cc2ccccc2)C(=O)O)cc1 |  | 
3.9 | 99.4 | 2.7 | 49.1 | 1.3 | O=C(O)[C@H](Cc1ccccc1)Oc1ccc(Cl)cc1 |  | 
28.7 | 38.2 | 25.7 |  |  | O=C(O)[C@H](Cc1ccccc1)Oc1ccc(CO)cc1 |  | 
2.5 | 80.7 | 20.1 |  |  | COc1ccc(O[C@@H](Cc2ccccc2)C(=O)O)cc1 |  | 
0.5 | 80.7 | 0.9 | 107 | 0.27 | O=C(O)[C@H](Cc1ccccc1)Oc1ccc(C(F)(F)F)cc1 |  | 
10.9 | 14.3 | 10.5 |  |  | O=C(O)[C@@H](Cc1ccccc1)Oc1ccc(Cl)cc1 |  | 
